Like-named read-outs stand apart in the source and are kept apart here.
Tests used:
[1] = tested on: LLC (mouse lung cancer cells); assay: In vitro anti-tumor cell proliferation activity (MTT method), LLC; format: cell-based; conditions: 48 h, read-out: IC50 values of in vitro anti-cell proliferation activity
Description: (§2) Tested cell lines S180 (mouse ascites tumor cells), LLC (mouse lung cancer cells), A549 (human non-small cell lung cancer cells), HCT116 (human colon cancer cells), U2Os (human osteosarcoma cells), and MCF-7 (human breast cancer cells) each were purchased from Nanjing KeyGen Biotech.
(§3) When preparing a test sample, the test compound was prepared into a sample solution with a concentration of 500 μM (with a final concentration 100 μM) by a PBS buffer containing 0.5% DMSO, which was used for preliminary screening of an anti-cell proliferation experiment in vitro.
(§4) Positive control group: doxorubicin, prepared to a required concentration with PBS buffer containing 0.5% DMSO; negative control group: a PBS buffer containing 0.5% DMSO; blank group: a PBS buffer containing 0.01% DMSO.

[2] = tested on: mouse S180 sarcoma model; assay: Inhibition of tumor growth in vivo (mouse S180 sarcoma model); set-up: species or system male ICR mice; conditions: for Tumor growth trend in mice: FIG. 4, ZD-E-1 versus ZD-F-1; for Average tumor weight: Mean ± SD, n 10
Description: The mice used in the experiment were male ICR mice of SPF grade, weighing 20 g±2 g, purchased from Beijing Vital River Laboratory Animal Technology Co., Ltd., and raised in an animal barrier of the Experimental Animal Department of Capital Medical University.
(§1) The specific method included: drugs were administered to tumor-forming mice by group for 7 consecutive days, a length of the tumor was measured every other day to calculate a tumor volume. 24 h after the last administration, the mice were weighed, anesthetized with diethyl ether, and eyeballs were removed to collect blood; the obtained whole blood was centrifuged at 1,000 rpm for 10 min, and a serum was absorbed for later use. The mice were sacrificed by neck dislocation, and the tumor mass and various organs were stripped and weighed (it was ensured that the operation was done as soon as possible and the stripping was complete and clean). The tumor inhibition rate was calculated by formula b, the results were shown in Table 2 and FIG. 2; and by calculating a viscera-weight ratio of each organ, and it was analyzed whether the test compound had obvious physiological effects on the mouse organs.

[3] = Nanomorphology characterization and stability (TEM, SEM, hydration particle size, Zeta potential); format: physicochemical; conditions: for Nanomorphology (shape): TEM and SEM; for Hydration particle size change / Zeta potential change: measured continuously for 72 h; for Hydration particle size: pH=7.0 versus other pH values, 72 h; for Zeta potential change: solutions at different pH values
Excerpt: The nanomorphology of compounds ZD-B and ZD-E-1 were studied by TEM and SEM, and hydration particle size and Zeta potential of the two compounds in a solution were studied by a nanometer particle size analyzer. The results were shown in FIG. 1A-H. In FIG. 1A-H, FIG. 1A was a TEM image of the compound ZD-B; FIG. 1B was a TEM image of the compound ZD-E-1; FIG. 1C was a SEM image of the compound ZD-B; FIG. 1D was a SEM image of the compound ZD-E-1; FIG. 1E was a hydration particle size change curve of the compound ZD-B in solutions at different pH values within 72 h (0.5 h, 24 h, 48 h, and 72 h); FIG. 1F was a hydration particle size change curve of the compound ZD-E-1 in solutions at different pH solutions within 72 h; FIG. 1G was a Zeta potential change curve of the compound ZD-B in solutions at different pH values within 72 h; and FIG. 1H was a Zeta potential change curve of the compound ZD-E-1 in solutions at different pH values within 72 h.

[4] = tested on: HCT116 (human colon cancer cells); assay: In vitro anti-tumor cell proliferation activity (MTT method), HCT116; format: cell-based; conditions: read-out: IC50 values of in vitro anti-cell proliferation activity
Description: as §2, §3, §4

[5] = tested on: A549 (human non-small cell lung cancer cells); assay: In vitro anti-tumor cell proliferation activity (MTT method), A549; format: cell-based; conditions: read-out: IC50 values of in vitro anti-cell proliferation activity
Description: as §2, §3, §4

[6] = tested on: S180 (mouse ascites tumor cells); assay: In vitro anti-tumor cell proliferation activity (MTT method), S180; format: cell-based; conditions: read-out: IC50 values of in vitro anti-cell proliferation activity
Description: as §2, §3, §4

[7] = Viscera-weight ratio / toxicity in tumor-bearing mice; format: in vivo, male ICR mice; conditions: for Effect on liver weight (viscera-weight ratio) compared with Vehicle group / Effect on brain weight (viscera-weight ratio) compared with Vehicle group: FIG. 5; for Effect on liver weight (viscera-weight ratio) compared with Vehicle group: ZD-E-1 at high dosages (10 μmol/kg and 5 μmol/kg); for Effect on brain weight (viscera-weight ratio) compared with Vehicle group: ZD-E-1 at three dosages
Description: as §1
After a preliminary study on the in vivo anti-tumor growth activity of different amino acid main compounds, ZD-A, ZD-B, ZD-E-1, and ZD-E-1 with an increased side-chain methylene unit (ZD-F-1) were selected; three dosages of 10 μmol/kg, 5 μmol/kg, and 2 μmol/kg were set to evaluate the inhibitory ability of the four compounds on tumor growth in mice. […] Afterwards, the tumor growth trend and the viscera-weight ratio of the two compounds on mice were analyzed to compare the anti-tumor growth ability and toxicity of the two compounds. The results were shown in FIG. 4 and FIG. 5: after one-way analysis of variance, * meant that compared with the Vehicle group, there was a difference, P<0.05; ** represented a significant difference compared with the Vehicle group, P<0.01.

[8] = tested on: MCF-7 (human breast cancer cells); assay: In vitro anti-tumor cell proliferation activity (MTT method), MCF-7; format: cell-based; conditions: read-out: IC50 values of in vitro anti-cell proliferation activity
Description: as §2, §3, §4

[9] = tested on: U2Os (human osteosarcoma cells); assay: In vitro anti-tumor cell proliferation activity (MTT method), U2Os; format: cell-based; conditions: 48 h, read-out: IC50 values of in vitro anti-cell proliferation activity
Description: as §2, §3, §4

[10] = Water solubility; format: physicochemical; conditions: decides the injection route
[11] = Table 2, 10 μmol/kg, ip, 7 consecutive days
[12] = three dosages 10, 5, 2 μmol/kg, iv

Structure (SMILES)	IC50 ([1]; LLC, Mean ± SD) [µM]	Anti-tumor growth activity (in words) ([2]; 10 μmol/kg, ip)	Average tumor weight compared with Vehicle group (one-way analysis of variance) ([2]; 10 μmol/kg, ip)	Tumor growth trend in mice [2]	Tumor Inhibition Rate [2, 11] [%]	Average tumor weight [2, 11] [g]	Tumor Inhibition Rate ([2]; Table 3, 2 μmol/kg, iv) [%]	Average tumor weight ([2]; Table 3, 2 μmol/kg, iv) [g]	Tumor Inhibition Rate ([2]; Table 3, 5 μmol/kg, iv) [%]	Average tumor weight ([2]; Table 3, 5 μmol/kg, iv) [g]	Tumor Inhibition Rate ([2]; Table 3, 10 μmol/kg, iv) [%]	Average tumor weight ([2]; Table 3, 10 μmol/kg, iv) [g]	Nanomorphology (shape) [3]	Hydration particle size change ([3]; pH=2.0)	Hydration particle size change ([3]; pH=5.5)	IC50 ([4]; HCT116, 48 h, Mean ± SD) [µM]	IC50 ([5]; A549, 48 h, Mean ± SD) [µM]	IC50 ([6]; S180, 48 h, Mean ± SD) [µM]	IC50 ([9]; U2Os, Mean ± SD) [µM]	Water solubility [10]	also measured
N=C(CCl)NCCC[C@H](Nc1ccc([N+](=O)[O-])c2nonc12)C(=O)NCc1ccccc1 [ZD-E-1, (S)—N-benzyl-5-(2-chloroacetimido)-2-((7-nitro-2,1,3-benzoxadiazol-4-yl)amino)pentaneamide]	26.1 ± 2.58	most prominent activities	significantly different from that of Vehicle group	roughly the same	40.01	1.072 ± 0.386	39.23	1.042 ± 0.205	41.65	1.001 ± 0.196	42.73	0.982 ± 0.300	shape of a ball	particle size hardly changed	particle size increased and then decreased	22.6 ± 1.45	45.5 ± 0.672	24.6 ± 1.72	28.8 ± 1.14	had no such concerns	Anti-tumor growth activity (in words) [2, 12]: desirable and stable anti-tumor growth activity; Average tumor weight compared with Vehicle group (one-way analysis of variance) [2, 12]: significant differences compared with the Vehicle group; Average tumor weight compared with the YW3-56 group [2, 12]: no difference compared with the YW3-56 group; Hydration particle size [3]: smallest particle size at pH=7.0; Zeta potential change [3]: neither ZD-B nor ZD-E-1 had an obvious change; Effect on liver weight (viscera-weight ratio) compared with Vehicle group [7]: different from those in the Vehicle group; Effect on brain weight (viscera-weight ratio) compared with Vehicle group [7]: different from those in the Vehicle group; Toxic side effects ([7]; mice, compared with ZD-F-1): more obvious toxic side effects, causing liver failure and brain lesions in mice; IC50 ([8]; MCF-7, 48 h, Mean ± SD): 40.5 ± 1.91 µM
CC(C)C[C@H](Nc1ccc([N+](=O)[O-])c2nonc12)C(=O)N[C@H](C(=O)OCc1ccccc1)C(C)C [ZD-B, NBD-LV-OBzl]	96.5 ± 6.85	most prominent activities	significantly different from that of Vehicle group		44.60	0.990 ± 0.180							shape of a strip	great change in particle size	great change in particle size	> 100	> 100	74.4 ± 10.1	86.4 ± 5.3	poor water solubility	Tumor Inhibition Rate ([2]; Table 3, 2 μmol/kg, ip): 17.00%; Average tumor weight ([2]; Table 3, 2 μmol/kg, ip): 1.424 ± 0.434 g; Tumor Inhibition Rate ([2]; Table 3, 5 μmol/kg, ip): 35.64%; Average tumor weight ([2]; Table 3, 5 μmol/kg, ip): 1.104 ± 0.218 g; Tumor Inhibition Rate ([2]; Table 3, 10 μmol/kg, ip): 41.23%; Average tumor weight ([2]; Table 3, 10 μmol/kg, ip): 1.008 ± 0.472 g; Hydration particle size [3]: smallest particle size at pH=7.0; Zeta potential change [3]: neither ZD-B nor ZD-E-1 had an obvious change
N=C(NCCC[C@H](Nc1ccc([N+](=O)[O-])c2nonc12)C(=O)OCc1ccccc1)N[N+](=O)[O-] [ZD-A, NBD-Arg(NO2)-OBzl]			different from that of Vehicle group		36.19	1.140 ± 0.437														poor water solubility	IC50 ([1]; Mus musculus): > 100 µM; Tumor Inhibition Rate ([2]; Table 3, 2 μmol/kg, ip): 23.36%; Average tumor weight ([2]; Table 3, 2 μmol/kg, ip): 1.315 ± 0.338 g; Tumor Inhibition Rate ([2]; Table 3, 5 μmol/kg, ip): 28.20%; Average tumor weight ([2]; Table 3, 5 μmol/kg, ip): 1.232 ± 0.102 g; Tumor Inhibition Rate ([2]; Table 3, 10 μmol/kg, ip): 29.78%; Average tumor weight ([2]; Table 3, 10 μmol/kg, ip): 1.204 ± 0.438 g; IC50 ([4]; Homo sapiens, HCT-116, 48 h): > 100 µM; IC50 ([5]; Homo sapiens, A549, 48 h): > 100 µM; IC50 ([6]; Mus musculus, S-180, 48 h): > 100 µM; IC50 ([8]; Homo sapiens, MCF7, 48 h): > 100 µM; IC50 ([9]; Homo sapiens, U2OS): > 100 µM
N=C(CCl)NCCCC[C@H](Nc1ccc([N+](=O)[O-])c2nonc12)C(=O)NCc1ccccc1 [ZD-F-1, NBD-Lys(C1)-NBzl]	> 100			roughly the same			13.32	1.487 ± 0.660	30.54	1.191 ± 0.407	39.99	1.029 ± 0.423				38.9 ± 2.05	> 100	23.7 ± 2.29	45.7 ± 1.68	had no such concerns	Effect on liver weight (viscera-weight ratio) compared with Vehicle group [7]: no difference; Effect on brain weight (viscera-weight ratio) compared with Vehicle group [7]: no difference; IC50 ([8]; MCF-7, 48 h, Mean ± SD): 68.7 ± 1.5 µM

From US12673120B2, “Fluorescently-traceable amino acid derivative and preparation methods and use thereof” (priority 2020, dated 2026)
